Results published in patent publication US20260042764A1, “COMPOSITIONS AND METHODS FOR INHIBITION OF KRAS” (TheRas, Inc., priority 2022, published 2026).
pIC50: −log10 of the molar value.

What was measured:
[1] = target: T1, Avi-KRAS G12D (1-169) GppNHp/RAF1 RBD-3xFLAG (52-151) (Homo sapiens, UniProt P01116, G12D); experiment: Raf1-KRAS G12D-GppNHP disruption HTRF assay (Biological Example 1); format: binding
T1 construct: Avi-KRAS G12D (1-169)
Summary of the method: (§1)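 Compounds were tested for disruption of KRAS–RAF1 RBD binding by HTRF in 50 mM Tris pH 7.5, 100 mM NaCl, 5 mM MgCl2, 0.1% BSA, 0.01% Tween, 10% DMSO. Protein mix was incubated 1 h at room temperature with shaking, then detection reagents added for another 1 h. Activity expressed as percent of DMSO control.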

[2] = target: T2, Avi-KRAS G12R (1-169) GppNHp/RAF1 RBD-3xFLAG (52-151) (Homo sapiens, UniProt P01116, G12R); experiment: Raf1-KRAS G12R-GppNHP disruption HTRF assay (Biological Example 1); format: binding
T2 construct: Avi-KRAS G12R (1-169)
T2 sequence (P01116 1-169 isoform P01116-2 G12R): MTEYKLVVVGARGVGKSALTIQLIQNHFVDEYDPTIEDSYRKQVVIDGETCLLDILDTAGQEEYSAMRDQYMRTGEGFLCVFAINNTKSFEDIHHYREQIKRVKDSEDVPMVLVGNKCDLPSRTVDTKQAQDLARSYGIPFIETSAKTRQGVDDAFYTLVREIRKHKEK
Summary of the method: as §1

[3] = target: T3, Avi-KRAS G12V (1-169) GppNHp/RAF1 RBD-3xFLAG (52-151) (Homo sapiens, UniProt P01116, G12V); experiment: Raf1-KRAS G12V-GppNHP disruption HTRF assay (Biological Example 1); format: binding
T3 construct: Avi-KRAS G12V (1-169)
T3 sequence (P01116 1-169 isoform P01116-2 G12V): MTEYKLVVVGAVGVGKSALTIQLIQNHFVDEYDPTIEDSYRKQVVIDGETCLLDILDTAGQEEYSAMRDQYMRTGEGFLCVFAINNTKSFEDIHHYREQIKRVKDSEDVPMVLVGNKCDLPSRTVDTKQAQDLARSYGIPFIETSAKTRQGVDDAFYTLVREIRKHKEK
Summary of the method: as §1

[4] = target: T4, Avi-KRAS WT (1-169) GppNHp/RAF1 RBD-3xFLAG (52-151) (Homo sapiens, UniProt P01116); experiment: Raf1-KRAS WT-GppNHP disruption HTRF assay (Biological Example 1); format: binding
T4 construct: Avi-KRAS WT (1-169)
T4 sequence (P01116 1-169 isoform P01116-2): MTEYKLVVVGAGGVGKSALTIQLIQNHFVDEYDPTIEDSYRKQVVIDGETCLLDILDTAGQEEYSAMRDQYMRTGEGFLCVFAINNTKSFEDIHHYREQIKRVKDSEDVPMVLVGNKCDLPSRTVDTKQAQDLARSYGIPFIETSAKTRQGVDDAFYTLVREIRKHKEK
Summary of the method: as §1

SW620 cells (KRAS G12V) = experiment: Cell-based pERK HTRF assay in SW620 cell (Biological Example 4); details: pERK HTRF
Summary of the method: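 This assay measures inhibition of ERK phosphorylation downstream of KRAS G12V in intact SW620 cells. Compounds are applied for 4 h over nine half-log concentrations starting at 1 μM, and pERK is quantified by HTRF.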

[5] = KRAS G12D, GppNHp-loaded, Table 11
[6] = KRAS G12R, GppNHp-loaded, Table 11
[7] = KRAS G12V, GppNHp-loaded, Table 11
[8] = KRAS WT, GppNHp-loaded, Table 11
[9] = Homo sapiens, SW-620, SW620 (KRAS G12V) cells
[10] = KRAS G12D, GppNHp-loaded, class symbols
[11] = KRAS G12R, GppNHp-loaded, class symbols
[12] = KRAS G12V, GppNHp-loaded, class symbols
[13] = KRAS WT, GppNHp-loaded, class symbols
[14] = Homo sapiens, SW-620, SW620 (KRAS G12V) cells, class symbols

T1 sequence (P01116 1-169 isoform P01116-2 G12D): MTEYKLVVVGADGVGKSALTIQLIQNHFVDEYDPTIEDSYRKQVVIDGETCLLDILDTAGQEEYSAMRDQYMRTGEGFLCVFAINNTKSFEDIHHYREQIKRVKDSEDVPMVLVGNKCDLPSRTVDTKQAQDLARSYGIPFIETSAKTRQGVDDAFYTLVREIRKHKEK

Row | Compound | pIC50 [1, 5] | pIC50 [2, 6] | pIC50 [3, 7] | pIC50 [4, 8] | pIC50 (SW620 cells (KRAS G12V); [9]) | pIC50 ([1]; KRAS G12D-GppNHp/RAF1 RBD HTRF) | pIC50 ([2]; KRAS G12R-GppNHp/RAF1 RBD HTRF) | pIC50 ([3]; KRAS G12V-GppNHp/RAF1 RBD HTRF) | pIC50 ([4]; KRAS WT-GppNHp/RAF1 RBD HTRF) | also measured
1 | CCC(=O)N1CC[C@@H](N(C)c2nc(OC[C@@]34CCCN3C[C@H](F)C4)nc3c(F)c(-c4ccc(F)c5sc(N)c(C#N)c45)c(C(F)(F)F)cc23)[C@H]1C [Compound 260] | > 7.00 | > 7.00 | 6.00 to 7.00 | > 7.00 | > 7.00 | – | – | – | – | –
2 | CCN(c1nc(OC[C@@]23CCCN2C[C@H](F)C3)nc2c(F)c(-c3ccc(F)c4sc(N)c(C#N)c34)c(C(F)(F)F)cc12)[C@H]1C[C@H](C)N(C(=O)[C@@H]2CC2(F)F)C1 (atropisomer, axis not shown) [Compound 751] | – | – | – | – | – | – | – | – | – | pIC50 [1, 10]: > 7.00; pIC50 [2, 11]: > 7.00; pIC50 [3, 12]: > 7.00; pIC50 [4, 13]: 6.00 to 7.00; pIC50 (SW620 cells (KRAS G12V); [14]): > 7.00
3 | CCN(c1nc(OC[C@@]23CCCN2C[C@H](F)C3)nc2c(F)c(-c3ccc(F)c4sc(N)c(C#N)c34)c(Cl)cc12)[C@@H]1CCN(C(=O)C2CC2)[C@@H]1C [Compound 337] | – | – | – | – | > 7.00 | 6.00 to 7.00 | 6.00 to 7.00 | 6.00 to 7.00 | 6.00 to 7.00 | –
4 | CC(=O)N1CC[C@@H](N(C)c2nc(OC[C@@]34CCCN3C[C@H](F)C4)nc3c(F)c(-c4ccc(F)c5sc(N)c(C#N)c45)c(Cl)cc23)[C@H]1C [Compound 398] | – | – | – | – | > 7.00 | 6.00 to 7.00 | 6.00 to 7.00 | 6.00 to 7.00 | 6.00 to 7.00 | –
5 | CCN(c1nc(OC[C@@]23CCCN2C[C@H](F)C3)nc2c(F)c(-c3ccc(F)c4sc(N)c(C#N)c34)c(Cl)cc12)[C@@H]1CCN(C(C)=O)[C@@H]1C [Compound 323] | – | – | – | – | > 7.00 | 6.00 to 7.00 | 6.00 to 7.00 | 6.00 to 7.00 | 6.00 to 7.00 | –
6 | N#Cc1c(N)sc2c(F)ccc(-c3c(C(F)(F)F)cc4c(N5CCC[C@@H](O)C5)nc(OC[C@@]56CCCN5C[C@H](F)C6)nc4c3F)c12 [Compound 234] | 6.00 to 7.00 | 6.00 to 7.00 | 6.00 to 7.00 | 6.00 to 7.00 | > 7.00 | – | – | – | – | –
7 | N#Cc1c(N)sc2c(F)ccc(-c3c(C(F)(F)F)cc4c(N5CC6CC5CO6)nc(OC[C@@]56CCCN5C[C@H](F)C6)nc4c3F)c12 (some centres unmarked) [Compound 147] | 6.00 to 7.00 | 6.00 to 7.00 | 6.00 to 7.00 | 6.00 to 7.00 | > 7.00 | – | – | – | – | –
8 | N#Cc1cnn2c1CN(c1nc(OC[C@@]34CCCN3C[C@H](F)C4)nc3c(F)c(-c4ccc(F)c5sc(N)c(C#N)c45)c(C(F)(F)F)cc13)CC2 [Compound 392] | – | – | – | – | > 7.00 | 6.00 to 7.00 | 6.00 to 7.00 | 6.00 to 7.00 | 6.00 to 7.00 | –
9 | CCN(c1nc(OCC23CCCN2CC(F)C3)nc2c(F)c(-c3ccc(F)c4sc(N)c(C#N)c34)c(C(F)(F)F)cc12)C1CC(C)N(C(=O)N2CC(F)C2)C1 (centres unmarked) [Compound 759] | – | – | – | – | – | – | – | – | – | pIC50 [1, 10]: > 7.00; pIC50 [2, 11]: > 7.00; pIC50 [3, 12]: > 7.00; pIC50 [4, 13]: > 7.00; pIC50 (SW620 cells (KRAS G12V); SW620 (KRAS G12V) cells, class symbols): > 7.00
10 | CCC(=O)N1C[C@@H](N(CC)c2nc(OC[C@@]34CCCN3C[C@H](F)C4)nc3c(F)c(-c4ccc(F)c5sc(N)c(C#N)c45)c(C(F)(F)F)cc23)C[C@H]1C [Compound 442] | – | – | – | – | > 7.00 | 6.00 to 7.00 | 6.00 to 7.00 | 6.00 to 7.00 | 6.00 to 7.00 | –
11 | CCN(c1nc(OC[C@@]23CCCN2C[C@H](F)C3)nc2c(F)c(-c3ccc(F)c4sc(N)c(C#N)c34)c(C(F)(F)F)cc12)[C@H]1C[C@H](C)N(C(C)=O)C1 [Compound 463] | – | – | – | – | > 7.00 | > 7.00 | > 7.00 | > 7.00 | > 7.00 | –
12 | C[C@@H]1[C@H](N(C)c2nc(OC[C@@]34CCCN3C[C@H](F)C4)nc3c(F)c(-c4ccc(F)c5sc(N)c(C#N)c45)c(C(F)(F)F)cc23)CCN1C(=O)C1CC1 [Compound 258] | > 7.00 | > 7.00 | 6.00 to 7.00 | > 7.00 | > 7.00 | – | – | – | – | –
13 | CCN(c1nc(OC[C@@]23CCCN2C[C@H](F)C3)nc2c(F)c(-c3ccc(F)c4sc(N)c(C#N)c34)c(C(F)(F)F)cc12)[C@H]1CCN(C(=O)c2ncco2)C1 (atropisomer, axis not shown) [Compound 584] | – | – | – | – | – | – | – | – | – | pIC50 [1, 10]: > 7.00; pIC50 [2, 11]: > 7.00; pIC50 [3, 12]: > 7.00; pIC50 [4, 13]: > 7.00; pIC50 (SW620 cells (KRAS G12V); [14]): > 7.00
